The values below come from patent publication US11976074B1, “Crystalline salts of Linsitinib” (Sling Therapeutics, Inc., priority 2023, dated 2024).

What all share (format): physicochemical
A short description of series [1]: Thermogravimetric analysis (TGA). As for the experimental part: The TG analysis was carried out using a TA Instruments […] Discovery Series instrument. The instrument balance was calibrated using class M weights and the temperature calibration was performed using alumel. The nitrogen purge was 10 mL per minute at the balance and 25 mL per minute at the furnace. The sample was placed into a pre-tared platinum pan and heated from approximately 25° C. to 300° C. at a rate of 10° C. per minute.

Series [2] is described as follows: Interconversion slurries of esylate forms. The following applies: 4° C., RT, 60° C.; MEK and 2:1 EtOH:HEP. The procedure: To find the thermodynamically stable form of the mono-salt, interconversion slurries were set-up at three different temperatures in two different solvent systems between Esylates 1, 2, 3 and Esylate 4+Esylate 5 (Table 11). A sample of Esylate 4+Esylate 5 was included as part of the interconversion slurry in-spite of Esylate 4 being a solvate as Esylate 5 could not be isolated as a separate pure phase until the drying experiment was carried out on Esylate 4 towards the end of the study. Slurries were set-up at 4° C., RT and at 60° C. in MEK and 2:1 EtOH:HEP, resulting in a total of six experiments which were run for a total of 7 days.

Series [3] is described as follows: Physical stability on capped storage at room temperature (PXRD reanalysis). The procedure: A theoretical hemi-hydrate for a mono-edisylate salt of linsitinib would contain 1.4% water. Additional endotherms are observed at 252 and 278° C. that are likely due to melt/decomposition based on the corresponding weight loss in the TGA beginning around 244° C.
HCl 1 was generated via evaporation of a solution containing 1:1 linsitinib:acid in tetrahydrofuran (THF)/water at 70° C. […] The weight loss is likely due to water and potentially evolution of hydrochloric acid.
The sample was initially analyzed by PXRD and stored at ambient temperature in a capped vial. (FIG. 85).

Series [4] is described as follows: pH-solubility of linsitinib free base and selected salts (pH 1.5 to 6.5, overnight equilibration, HPLC). The following applies: for solubility: overnight equilibration; for Final pH: after overnight equilibration. As for the experimental part:
The pH-solubility of selected salts (Phosphate 1, L-Malate 1, Esylate 1, and Esylate 2) was evaluated and compared with linsitinib free base. The solubility analysis was conducted in a manner consistent with a previous study that was performed with linsitinib free base. Aqueous solutions were prepared between pH 1.5 and pH 6.5 in 0.5 pH unit increments via titration of the solution using NaOH and HCl. For each salt or the free base, an attempt was made to reach saturation in each of the solutions by adding sufficient material to the solution such that excess solids remained. If saturation was achieved, the pH of the solution was measured and adjusted to the target pH and additional material was added if needed. The samples were then equilibrated overnight. The final pH of the solution was measured, the solids were filtered and selected samples were analyzed by PXRD. The concentration of linsitinib in the filtrate was quantitated by HPLC (diluted as needed). In some cases, significant drift (+1 pH unit or more) of the final pH from the target pH was observed after the overnight equilibration.
The pH-solubility data is shown graphically in FIG. 89. […] Indeed, it should be noted that in the majority of the low pH systems, higher initial dissolution/solubility was observed followed by precipitation of the material from solution upon longer equilibration.

The nature of series [5]: Equilibrium solubility in bio-relevant media (FaSSGF pH 1.6, FaSSIF pH 6.5). The following applies: for Solubility compared with the free base: in words. The source says: In addition to the pH-solubility data, a comparison of the equilibrium solubility of linsitinib free base and salts in two bio-relevant media (Table 28), fasted state simulated gastric fluid (FaSSGF pH 1.6) and intestinal fluid (FaSSIF pH 6.5) was completed. […] A saturated solution of Esylate 1 was not achieved during this study and therefore the equilibrium solubility could be higher than determined. It should be noted that variability of almost a full pH unit was noted among the samples making a direct comparison more challenging.

Series [6] is described as follows: Polymorph screen of linsitinib malate (PXRD/XRPD result). As to conditions: solvent and conditions per sample no.; for PXRD Results: polymorph screen of linsitinib malate, slurry, cooling, precipitation or lyophilization. The procedure: A Rigaku SmartLab X-Ray Diffractometer was configured in Bragg-Brentano reflection geometry equipped with a beam stop and knife edge to reduce incident beam and air scatter.
A polymorph screen of linsitinib malate was conducted. Experiments were designed to target thermodynamically stable forms and therefore utilized techniques such as long-term slurry, cooling, anti-solvent addition, and evaporation. Reaction crystallization experiments with linsitinib free base and L-malic acid were also conducted. Additionally, non-crystalline material was used as an alternative starting material as this can provide access to polymorphs that would not be accessible from crystalline starting material.

Series [7] can be described thus: Water activity slurries of Esylate 2 seeded with Esylate 1. The following applies: THF/H2O, aw 0.45-0.91, RT. The text has this: Water activity slurries were set-up with Esylate 2 and seeds of Esylate 1 to explore the presence of a potential hydrate and any associated critical water activity (Table 12). Four slurries were set-up in varying ratios of THF and H2O corresponding to 0.45, 0.63, 0.78 and 0.91 aw respectively.

[8] abbreviates: aqueous solution, pH 4, aqueous buffer, thermodynamic from solid, target pH 4.0, * = clear solution, not equilibrium value, read-out: Solubility.
Setting [9] is: aqueous solution, pH 4.5, aqueous buffer, thermodynamic from solid, target pH 4.5, * = clear solution, not equilibrium value, read-out: Solubility.
Where [10] appears, read: aqueous solution, pH 5, aqueous buffer, thermodynamic from solid, target pH 5.0, read-out: Solubility.
Where [11] appears, read: aqueous solution, pH 5.5, aqueous buffer, thermodynamic from solid, target pH 5.5, read-out: Solubility.
Where [12] appears, read: aqueous solution, pH adjusted with NaOH and HCl, pH 1.5, aqueous buffer, thermodynamic from solid, target pH 1.5, * = clear solution, not equilibrium value, read-out: Solubility.
The mark [13] stands for this setting: aqueous solution, pH adjusted with NaOH and HCl, pH 2, aqueous buffer, thermodynamic from solid, target pH 2.0, * = clear solution, not equilibrium value, read-out: Solubility.
Where [14] appears, read: aqueous solution, pH adjusted with NaOH and HCl, pH 2.5, aqueous buffer, thermodynamic from solid, target pH 2.5, * = clear solution, not equilibrium value, read-out: Solubility.
The mark [15] stands for this setting: aqueous solution, pH adjusted with NaOH and HCl, pH 3, aqueous buffer, thermodynamic from solid, target pH 3.0, * = clear solution, not equilibrium value, read-out: Solubility.
The mark [16] stands for this setting: aqueous solution, pH adjusted with NaOH and HCl, pH 3.5, aqueous buffer, thermodynamic from solid, target pH 3.5, * = clear solution, not equilibrium value, read-out: Solubility.
Setting [17] is: fasted state simulated gastric fluid (FaSSGF), pH 1.6, fassgf or other biorelevant, thermodynamic from solid, FaSSGF (pH 1.6), read-out: Solubility.

In the case of `C[C@]1(O)C[C@@H](c2nc(-c3ccc4ccc(-c5ccccc5)nc4c3)c3c(N)nccn32)C1.O=C(O)C[C@H](O)C(=O)O` [L-Malate 6], the “TGA Results (weight loss)” value in series [1] (start to 61° C.) was 4.2%, start to 61 °C.
As to `CCS(=O)(=O)O.C[C@]1(O)C[C@@H](c2nc(-c3ccc4ccc(-c5ccccc5)nc4c3)c3c(N)nccn32)C1` [Esylate 5], the “Relative stability of the form in interconversion slurries” value in series [2] was “metastable”.
As for `C[C@]1(O)C[C@@H](c2nc(-c3ccc4ccc(-c5ccccc5)nc4c3)c3c(N)nccn32)C1` [Form I], the “PXRD result after storage at RT” value in series [3] (20 days, capped, listed as 2-13) is listed as “Form I”.
As to `C[C@]1(O)C[C@@H](c2nc(-c3ccc4ccc(-c5ccccc5)nc4c3)c3c(N)nccn32)C1` [Edisylate 1], the “PXRD result after storage at RT” value is recorded as “no significant changes” in series [3] (20 days, capped) and “Edisylate 1” in series [3] (20 days, capped, listed as 2-4).
Consider `C[C@]1(O)C[C@@H](c2nc(-c3ccc4ccc(-c5ccccc5)nc4c3)c3c(N)nccn32)C1` [Form B, reference compound], for which, in series [3] (23 days), the “PXRD result after storage at RT” value was “Form B (LC)”.
With `C[C@]1(O)C[C@@H](c2nc(-c3ccc4ccc(-c5ccccc5)nc4c3)c3c(N)nccn32)C1.Cl` [HCl 1], the “PXRD result after storage at RT” value in series [3] (17 days, capped) is recorded as “no significant changes”; in series [3] (17 days, capped, listed as 2-11), “HCl 1”.
What is called solubility is the dissolved amount per volume that the medium holds. Take `C[C@]1(O)C[C@@H](c2nc(-c3ccc4ccc(-c5ccccc5)nc4c3)c3c(N)nccn32)C1.O=P(O)(O)O` [Phosphate 1]: the solubility stood at 5.87 mg/mL in series [4] (setting [8]); 3.04 mg/mL in series [4] (setting [9]); 0.0458 mg/mL in series [4] (setting [10]); 0.035 mg/mL in series [4] (setting [11]); 0.0046 mg/mL in series [4] (aqueous solution, pH 6, aqueous buffer, thermodynamic from solid, target pH 6.0, read-out: Solubility); 0.001 mg/mL in series [4] (aqueous solution, pH 6.5, aqueous buffer, thermodynamic from solid, target pH 6.5, read-out: Solubility). For the same compound, the solubility in series [4] (setting [12]) is 38.6 mg/mL; in series [4] (setting [13]) it was 25.9 mg/mL; in series [4] (setting [14]) it was 18.4 mg/mL; in series [4] (setting [15]), 14.9 mg/mL; in series [4] (setting [16]), 7.5 mg/mL; in series [5] (setting [17]), 9.51 mg/mL. The solubility in series [5] (fasted state simulated intestinal fluid (FaSSIF), pH 6.5, fassif, thermodynamic from solid, FaSSIF (pH 6.5), read-out: Solubility) was 0.009 mg/mL. In addition, the “Final pH” value in series [4] (target pH 1.5) was 1.39; in series [4] (target pH 2.0), 1.72; in series [4] (target pH 2.5), 2.46; in series [4] (target pH 3.0), 2.58; in series [4] (target pH 3.5), 2.89; in series [4] (target pH 4.0), 3.69. The “Final pH” value came to 4.01 in series [4] (target pH 4.5); 5.49 in series [4] (target pH 5.0); 5.73 in series [4] (target pH 5.5); 5.65 in series [4] (target pH 6.0); 6.21 in series [4] (target pH 6.5); 2.74 in series [5] (FaSSGF (pH 1.6)). The “Final pH” value in series [5] (FaSSIF (pH 6.5)) was 5.63. Besides, the “Solubility compared with the free base” value in series [5] (FaSSGF (pH 1.6)) is listed as “largely comparable”.
With `C[C@]1(O)C[C@@H](c2nc(-c3ccc4ccc(-c5ccccc5)nc4c3)c3c(N)nccn32)C1.O=C(O)C[C@H](O)C(=O)O` [L-Malate 9], the “XRPD Results” value in series [6] (polymorph screen starting from non-crystalline linsitinib L-malate, vapor stress, humidity stress, slurry or precipitation, listed as 4-66) is given as “Malate 9”.
Regarding `C[C@]1(O)C[C@@H](c2nc(-c3ccc4ccc(-c5ccccc5)nc4c3)c3c(N)nccn32)C1` [Form J], the “PXRD result after storage at RT” value in series [3] (17 days, capped) was “Form I”; in series [3] (20 days, capped), “converted to Form I”.
As to `C[C@]1(O)C[C@@H](c2nc(-c3ccc4ccc(-c5ccccc5)nc4c3)c3c(N)nccn32)C1.O=C(O)C[C@H](O)C(=O)O` [L-Malate 2], in series [6] (listed as 4-45), the “PXRD Results” value was “Malate 2”.
As for `C[C@]1(O)C[C@@H](c2nc(-c3ccc4ccc(-c5ccccc5)nc4c3)c3c(N)nccn32)C1.O=C(O)C[C@H](O)C(=O)O` [L-Malate 3], the “TGA Results (weight loss)” value in series [1] (90° C. to 139° C.) is 0.6%, 90 °C to 139 °C; in series [1] (start to 90° C.) it was 3.0%, start to 90 °C. Further, the “PXRD Results” value in series [6] (listed as 4-22) is recorded as “Malate 3; LC”.
For the compound `CCS(=O)(=O)O.C[C@]1(O)C[C@@H](c2nc(-c3ccc4ccc(-c5ccccc5)nc4c3)c3c(N)nccn32)C1` [Esylate 1], the solubility in series [4] (setting [8]) amounted to 32.3 mg/mL; in series [4] (setting [9]), 36.6 mg/mL; in series [4] (setting [10]), 28.7 mg/mL; in series [4] (setting [11]), 0.0517 mg/mL; in series [4] (setting [12]) it was 64.3 mg/mL; in series [4] (setting [13]) it was 59.1 mg/mL. Also, the solubility in series [4] (setting [14]) is 47.3 mg/mL; in series [4] (setting [15]) it was 53 mg/mL; in series [4] (setting [16]), 31 mg/mL; in series [4] (target pH 6.5), 0.0296 mg/mL; in series [5] (FaSSIF (pH 6.5)) it was 0.006 mg/mL; in series [5] (setting [17]), not below 61.6 mg/mL. Besides, the “Solubility compared to the free base and other salts” value in series [4] (between pH 3 and pH 4) is given as “highest solubility”. Besides, in series [4] (lower pH (<3)), the “Solubility compared with the free base or Phosphate 1” value is listed as “significantly higher solubility”. Also, the “Final pH” value in series [4] (target pH 1.5) was found to be 1.52; in series [4] (target pH 2.0) it was 1.99; in series [4] (target pH 2.5), 2.50; in series [4] (target pH 3.0), 3.04; in series [4] (target pH 3.5), 3.50; in series [4] (target pH 4.0), 3.94. In addition, the “Final pH” value in series [4] (target pH 4.5) worked out at 4.36; in series [4] (target pH 5.0), 3.86; in series [4] (target pH 5.5) it was 4.47; in series [4] (target pH 6.0), 9.08; in series [4] (target pH 6.5), 4.46; in series [5] (FaSSGF (pH 1.6)), 3.30. For the same compound, the “Final pH” value in series [5] (FaSSIF (pH 6.5)) came out at 6.20. The “Solubility compared with the free base” value in series [5] (FaSSGF (pH 1.6)) is on record as “highest solubility by a significant margin”; in series [5] (FaSSIF (pH 6.5)) it was “lower solubility”. The “Relative stability of the form in water activity slurries” value in series [7] was “metastable”.
